Drawing on patent publication US6043279A, “Compounds having selective activity for retinoid X receptors, and means for modulation of processes mediated by retinoid X receptors” (priority 1997, dated 2000), this text covers Emax and EC50 for two compounds.

What all share (format): cell-based
One experiment has as its target T1, RXRα (Homo sapiens, UniProt P19793).
T1 construct: expressed in transfected cells; host or cells: CV-1 (monkey kidney)
T1 sequence (P19793 1-462): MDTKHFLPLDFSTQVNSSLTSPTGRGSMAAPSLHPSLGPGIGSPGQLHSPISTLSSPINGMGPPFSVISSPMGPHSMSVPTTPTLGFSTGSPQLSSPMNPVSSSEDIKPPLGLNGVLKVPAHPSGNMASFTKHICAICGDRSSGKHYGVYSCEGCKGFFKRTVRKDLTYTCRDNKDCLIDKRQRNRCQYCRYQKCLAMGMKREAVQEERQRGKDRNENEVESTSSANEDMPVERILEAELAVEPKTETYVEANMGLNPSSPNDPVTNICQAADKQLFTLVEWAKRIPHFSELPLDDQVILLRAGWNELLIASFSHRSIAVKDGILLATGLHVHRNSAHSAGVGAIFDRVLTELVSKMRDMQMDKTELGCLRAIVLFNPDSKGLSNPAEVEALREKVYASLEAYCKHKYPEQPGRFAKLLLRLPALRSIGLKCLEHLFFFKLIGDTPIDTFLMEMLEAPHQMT
Description: co-transfection (cis-trans) assay in CV-1 cells, RXRα. The note with it: for Emax: CV-1, maximal response relative to all-trans-retinoic acid at 10^-5 M, read-out: Efficacy RXRα; for EC50: CV-1 cells, luciferase reporter, concentration giving 50% of maximal observed response, read-out: Potency (nM) RXRα. The source says: (§1) The co-transfection assay provides a mechanism to evaluate the ability of a compound to modulate the transcription response initiated by an intracellular receptor. […] Berger et al., J. Steroid Biochem. Molec.
(§2) Briefly, the co-transfection assay involves the introduction of two plasmids by transient transfection into a retinoid receptor-negative mammalian cell background. The first plasmid contains a retinoid receptor cDNA and directs constitutive expression of the encoded receptor. The second plasmid contains a cDNA that encodes for a readily quantifiable protein, e.g., firefly luciferase or chloramphenicol acetyl transferase (CAT), under control of a promoter containing a retinoid acid response element, which confers retinoid dependence on the transcription of the reporter. In this co-transfection assay, all retinoid receptors respond to all-trans-retinoic acid in a similar fashion. This assay can be used to accurately measure efficacy and potency of retinoic acid and synthetic retinoids as ligands that interact with the individual retinoid receptor subtypes.
(§3) Accordingly, synthetic retinoid compounds of the current invention were evaluated for their interaction with retinoid receptor subtypes using the co-transfection assay in which CV-1 cells were co-transfected with one of the retinoid receptor subtypes, a reporter construct, and an internal control to allow normalization of the response for transfection efficiency. The following example is illustrative.
(§4) Retinoids: All-trans-retinoic acid (RA) and 13-cis-retinoic acid (13-cis-RA) were obtained from Sigma. […] Retinoids were dissolved in dimethylsulfoxide for use in the transcriptional activation assays.
(§5) Co-transfection Assay In CV-1 Cells: A monkey kidney cell line, CV-1, was used in the cis-trans assay. Cells were transfected with two plasmids. […] The cis-vector contains an easily assayable gene product, in this case the firefly luciferase, coupled to a retinoid-responsive promoter, i.e., an RARE or RXRE. Addition of retinoic acid or an appropriate synthetic retinoid results in the formation of a retinoid-RAR or -RXR complex that activates the expression of luciferase gene, causing light to be emitted from cell extracts. The level of luciferase activity is directly proportional to the effectiveness of the retinoid-receptor complex in activating gene expression. This sensitive and reproducible co-transfection approach permits the identification of retinoids that interact with the different receptor isoforms.
(§6) Cells were cultured in DMEM supplemented with 10% charcoal resin-stripped fetal bovine serum, and experiments were conducted in 96-well plates. […] Cells were transfected for 6 h and then washed to remove the precipitate. The cells were then incubated for 36 h with or without retinoid. […]
On the technique in general: In a reporter assay the amount or activity of a reporter protein is the signal.

A further experiment concerns the target T2, RXRγ (Mus musculus, UniProt P28705).
T2 construct: expressed in transfected cells; host or cells: CV-1 (monkey kidney)
T2 sequence (P28705 1-463): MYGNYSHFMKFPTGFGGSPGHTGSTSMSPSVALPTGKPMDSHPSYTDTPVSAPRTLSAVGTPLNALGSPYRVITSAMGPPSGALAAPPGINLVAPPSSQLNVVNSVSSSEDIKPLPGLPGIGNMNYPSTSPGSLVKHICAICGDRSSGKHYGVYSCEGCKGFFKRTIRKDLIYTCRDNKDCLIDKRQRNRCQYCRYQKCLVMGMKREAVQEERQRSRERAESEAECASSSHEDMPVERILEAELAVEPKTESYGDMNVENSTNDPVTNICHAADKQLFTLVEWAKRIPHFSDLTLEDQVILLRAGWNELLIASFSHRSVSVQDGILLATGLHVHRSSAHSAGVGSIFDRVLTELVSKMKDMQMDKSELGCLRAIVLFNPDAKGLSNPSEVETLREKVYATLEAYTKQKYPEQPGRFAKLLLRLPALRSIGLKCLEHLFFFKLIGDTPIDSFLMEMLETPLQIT
As to the kind of experiment: co-transfection (cis-trans) assay in CV-1 cells, RXRγ. The settings on record: for Emax at 10 µM: CV-1, maximal response relative to all-trans-retinoic acid at 10^-5 M, read-out: Efficacy RXRγ; for EC50: CV-1 cells, luciferase reporter, concentration giving 50% of maximal observed response, read-out: Potency (nM) RXRγ.
Source text: as §1, §2, §3, §4, §5, §6

The target in another experiment is T3, RARγ (Homo sapiens, UniProt P13631).
T3 construct: expressed in transfected cells; host or cells: CV-1 (monkey kidney)
T3 sequence (P13631 1-454): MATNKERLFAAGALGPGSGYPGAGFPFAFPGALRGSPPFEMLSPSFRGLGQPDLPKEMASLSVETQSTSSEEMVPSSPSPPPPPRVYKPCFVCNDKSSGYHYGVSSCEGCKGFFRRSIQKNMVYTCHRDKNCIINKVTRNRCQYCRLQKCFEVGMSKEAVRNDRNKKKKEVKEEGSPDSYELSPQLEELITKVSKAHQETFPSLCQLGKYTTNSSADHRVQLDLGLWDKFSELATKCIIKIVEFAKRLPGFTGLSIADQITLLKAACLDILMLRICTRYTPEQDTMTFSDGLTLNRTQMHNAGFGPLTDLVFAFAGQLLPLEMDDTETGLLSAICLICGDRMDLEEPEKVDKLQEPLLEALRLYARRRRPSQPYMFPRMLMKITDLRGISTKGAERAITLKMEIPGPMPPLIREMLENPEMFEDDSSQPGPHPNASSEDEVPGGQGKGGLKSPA
As to the kind of experiment: co-transfection (cis-trans) assay in CV-1 cells, RARγ. The settings on record: for Emax: CV-1, maximal response relative to all-trans-retinoic acid at 10^-5 M, read-out: Efficacy RARγ; for EC50: CV-1 cells, luciferase reporter, concentration giving 50% of maximal observed response, read-out: Potency (nM) RARγ.
Source text: as §1, §2, §3, §4, §5, §6

For the compound `Cc1cc(C(C)(C)C)ccc1C(=NO)c1ccc(C(=O)O)cc1` [Compound 137, 4-[(2-methyl-4-t-butylphenyl)carbonyl]benzoic acid oxime], the Emax was 47% on RXRα and less than 2% on RARγ. The EC50 at RXRα was 270 nM; on RXRγ, 190 nM; at RARγ, more than 10000 nM. Further, at RXRγ, the Emax at 10 µM turned out to be 50%.
On to `C=C(c1ccc(C(=O)O)cc1)c1ccc(C(C)(C)C)cc1C` [Compound 133, 4-[1-(2-methyl-4-t-butylphenyl)ethenyl]benzoic acid], for which, at RXRα, the Emax stood at 86% and the EC50 was 440 nM. Besides, at RXRγ, the Emax at 10 µM was determined as 91% and the EC50 amounted to 290 nM. For the same compound, on RARγ, the Emax was less than 2% and the EC50 is more than 10000 nM.
